In ChEMBL document CHEMBL4385613, “Discovery of Conformational Control Inhibitors Switching off the Activated c-KIT and Targeting a Broad Range of Clinically Relevant c-KIT Mutants” (J Med Chem, 2019):
Active and inactive are the calls of the source. The calls are words filed in the database; no cut-off is given here.

Columns and labels:
GIST430 [1] = test: Antiproliferative activity against human GIST430 cells harboring c-KIT exon 11 primary in-frame V560-L576 deletion mutant and exon 13 heterozygous secondary missense V654A mutant assessed as reduction in cell viability by MTS assay; format: functional
[2] = test system: Mast/stem cell growth factor receptor Kit (Homo sapiens), P10721 [D816V]; settings: at 100 nM
Mast/stem cell growth factor receptor Kit (Homo sapiens), P10721 [D816V], sequence (P10721 whole entry D816V): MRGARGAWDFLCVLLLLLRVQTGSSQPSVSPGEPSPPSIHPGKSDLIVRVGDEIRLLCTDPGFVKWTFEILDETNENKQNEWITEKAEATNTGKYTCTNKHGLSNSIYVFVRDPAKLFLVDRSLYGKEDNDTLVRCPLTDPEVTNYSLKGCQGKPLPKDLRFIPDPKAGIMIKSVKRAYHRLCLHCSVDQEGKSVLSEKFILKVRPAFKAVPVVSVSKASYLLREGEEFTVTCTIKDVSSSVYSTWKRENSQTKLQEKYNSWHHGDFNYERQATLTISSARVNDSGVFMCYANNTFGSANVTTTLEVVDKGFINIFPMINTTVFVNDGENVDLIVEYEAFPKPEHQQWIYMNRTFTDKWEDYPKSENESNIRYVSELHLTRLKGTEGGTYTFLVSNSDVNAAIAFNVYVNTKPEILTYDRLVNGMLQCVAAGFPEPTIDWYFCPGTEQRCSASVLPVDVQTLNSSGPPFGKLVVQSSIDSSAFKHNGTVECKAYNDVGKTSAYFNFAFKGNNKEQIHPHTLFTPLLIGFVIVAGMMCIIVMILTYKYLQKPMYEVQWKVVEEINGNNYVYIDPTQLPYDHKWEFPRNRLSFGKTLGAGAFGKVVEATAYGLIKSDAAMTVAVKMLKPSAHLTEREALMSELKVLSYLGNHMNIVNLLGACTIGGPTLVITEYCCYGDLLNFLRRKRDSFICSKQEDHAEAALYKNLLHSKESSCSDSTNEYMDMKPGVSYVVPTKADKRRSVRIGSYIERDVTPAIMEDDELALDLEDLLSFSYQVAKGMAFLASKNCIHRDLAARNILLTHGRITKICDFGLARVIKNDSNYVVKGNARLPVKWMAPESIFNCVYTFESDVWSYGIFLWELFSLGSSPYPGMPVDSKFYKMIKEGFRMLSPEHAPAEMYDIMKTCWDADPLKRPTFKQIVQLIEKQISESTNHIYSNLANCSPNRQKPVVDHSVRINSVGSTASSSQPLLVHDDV
Description: Inhibition of human c-KIT A loop exon 17 D816V single mutant at 100 nM using poly (Glu,Tyr) 4:1 as substrate in presence of 33P-gamma-ATP by hotspot kinase assay relative to control

PC-3 = test: Antiproliferative activity against human PC3 assessed as reduction in cell viability after 72 hrs by MTS assay; format: functional; settings: PC-3, 72 h
[3] = molecular target: Mast/stem cell growth factor receptor Kit (Homo sapiens, UniProt P10721, A829P); test: Inhibition of human c-KIT A loop exon 18 A829P single mutant using poly (Glu,Tyr) 4:1 as substrate in presence of 33P-gamma-ATP by hotspot kinase assay
Mast/stem cell growth factor receptor Kit (Homo sapiens, UniProt P10721, A829P), sequence (P10721 26-976 A829P limits assumed): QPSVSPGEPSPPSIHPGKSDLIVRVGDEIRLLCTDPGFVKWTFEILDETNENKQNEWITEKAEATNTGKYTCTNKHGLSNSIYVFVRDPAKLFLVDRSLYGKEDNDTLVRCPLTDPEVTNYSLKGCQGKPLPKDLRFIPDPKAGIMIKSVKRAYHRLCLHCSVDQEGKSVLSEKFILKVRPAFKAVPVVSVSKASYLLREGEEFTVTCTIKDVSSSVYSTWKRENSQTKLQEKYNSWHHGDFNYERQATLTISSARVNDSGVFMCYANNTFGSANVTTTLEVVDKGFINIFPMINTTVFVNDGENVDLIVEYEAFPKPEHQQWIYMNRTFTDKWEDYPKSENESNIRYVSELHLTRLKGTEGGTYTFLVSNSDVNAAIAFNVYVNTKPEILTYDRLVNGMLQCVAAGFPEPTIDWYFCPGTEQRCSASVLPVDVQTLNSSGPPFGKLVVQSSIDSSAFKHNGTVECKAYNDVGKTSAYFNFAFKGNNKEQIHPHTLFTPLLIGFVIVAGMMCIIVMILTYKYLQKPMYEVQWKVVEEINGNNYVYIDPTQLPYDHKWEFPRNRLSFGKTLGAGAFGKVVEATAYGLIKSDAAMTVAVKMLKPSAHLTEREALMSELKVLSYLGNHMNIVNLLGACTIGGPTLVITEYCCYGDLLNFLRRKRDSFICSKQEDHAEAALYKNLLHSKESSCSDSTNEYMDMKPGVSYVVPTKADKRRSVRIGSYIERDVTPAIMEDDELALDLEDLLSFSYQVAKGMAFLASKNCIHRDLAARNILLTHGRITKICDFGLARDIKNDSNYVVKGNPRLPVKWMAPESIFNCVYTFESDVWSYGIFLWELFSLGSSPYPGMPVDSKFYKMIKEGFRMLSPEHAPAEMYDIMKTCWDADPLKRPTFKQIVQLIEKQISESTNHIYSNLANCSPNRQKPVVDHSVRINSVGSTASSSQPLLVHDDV

[4] = test system: Mast/stem cell growth factor receptor Kit (Homo sapiens), P10721 [V560G,D816V]; test: Inhibition of human c-KIT A loop exon 11/17 V560G/D816V double mutant at 10 nM using poly (Glu,Tyr) 4:1 as substrate in presence of 33P-gamma-ATP by hotspot kinase assay relative to control
Mast/stem cell growth factor receptor Kit (Homo sapiens), P10721 [V560G,D816V], sequence (P10721 whole entry V560G/D816V, the tested form may be a part): as the sequence (P10721 whole entry D816V) above, with V560G counted along it

[5] = molecular target: T1, Mast/stem cell growth factor receptor Kit (Homo sapiens, UniProt P10721); test: Inhibition of recombinant human N-terminal 6x-His-tagged c-KIT (547 to 935 residues)/(694 to 753 residues deletion) expressed in baculovirus infected Sf9 insect cells assessed as decrease in poly (Glu,Tyr) 4:1 phosphorylation measured after 150 mins in presence of ATP by ADP-glo based luminescence assay
[6] = molecular target: Mast/stem cell growth factor receptor Kit (Homo sapiens, UniProt P10721, Y823D); test: Inhibition of human c-KIT A loop exon 17 Y823D single mutant using poly (Glu,Tyr) 4:1 as substrate in presence of 33P-gamma-ATP by hotspot kinase assay
Mast/stem cell growth factor receptor Kit (Homo sapiens, UniProt P10721, Y823D), sequence (P10721 26-976 Y823D limits assumed): as the sequence (P10721 26-976 A829P limits assumed) above, with Y798D, P804A counted along it

Mus musculus = test: Decrease in c-KIT phosphorylation in NOD-SCID mouse xenografted with human GIST430 cells harboring c-KIT exon 11 primary in-frame V560-L576 deletion mutant and exon 13 heterozygous secondary missense V654A mutant at 80 mg/kg, po measured after 8 hrs by immunoblotting analysis relative to control; format: functional
[7] = Cmax in ICR mouse at 10 mg/kg, po administered as single dose measured up to 24 hrs by LC-MS/MS analysis; format: ADME, organism-based; set-up: dose 10 mg/kg, route oral; settings: in vivo
[8] = molecular target: T1, Mast/stem cell growth factor receptor Kit; test: (§1) Inhibition of ATP-activated recombinant human N-terminal 6x-His-tagged c-KIT (547 to 935 residues)/(694 to 753 residues deletion) expressed in baculovirus infected Sf9 insect cells assessed as decrease in poly (Glu,Tyr) 4:1 phosphorylation incubated for 30 mins followed by ATP addition and measured after 30 mins by Kinase Glo based luminescence assay
[9] = test system: Mast/stem cell growth factor receptor Kit (Homo sapiens), P10721 [V560G,N822K]; test: Inhibition of human c-KIT A loop exon 11/17 V560G/N822K double mutant at 10 nM using poly (Glu,Tyr) 4:1 as substrate in presence of 33P-gamma-ATP by hotspot kinase assay relative to control
Mast/stem cell growth factor receptor Kit (Homo sapiens), P10721 [V560G,N822K], sequence (P10721 whole entry V560G/N822K): as the sequence (P10721 whole entry D816V) above, with V560G, V816D, N822K counted along it

[10] = test system: Mast/stem cell growth factor receptor Kit (Homo sapiens), P10721 [UNDEFINED MUTATION]; test: Inhibition of c-KIT V560-L576 deletion/V654A double mutant phosphorylation in human GIST430 cells assessed as decrease in phosphorylation of MAPK at 10 to 100 nM measured after 24 to 72 hrs by Western blot analysis; format: cell-based
Mast/stem cell growth factor receptor Kit (Homo sapiens), P10721 [UNDEFINED MUTATION], sequence (P10721 whole entry, looked up, stated change not applied): as the sequence (P10721 whole entry D816V) above, with V816D counted along it

[11] = Antiproliferative activity against human Detroit 551 assessed as reduction in cell viability after 72 hrs by MTS assay; format: cell-based; settings: Detroit 551 cells
[12] = test system: Mast/stem cell growth factor receptor Kit (Homo sapiens), P10721 [UNDEFINED MUTATION]; test: Inhibition of c-KIT V560-L576 deletion/V654A double mutant phosphorylation in human GIST430 cells at 10 to 100 nM measured after 24 to 72 hrs by Western blot analysis; format: cell-based
GISTT1 = test: Antiproliferative activity against human GISTT1 cells harboring heterozygous V560-Y578 deletion mutant assessed as reduction in cell viability by MTS assay; format: functional
[13] = test system: Mast/stem cell growth factor receptor Kit (Homo sapiens), P10721 [UNDEFINED MUTATION]; test: Inhibition of c-KIT V560-L576 deletion/V654A double mutant phosphorylation in human GIST430 cells assessed as decrease in phosphorylation of AKT at 10 to 100 nM measured after 24 to 72 hrs by Western blot analysis; format: cell-based
[14] = Plasma clearance in ICR mouse at 2 mg/kg, iv administered as single dose measured up to 24 hrs by LC-MS/MS analysis; format: ADME, organism-based
[15] = test system: Mast/stem cell growth factor receptor Kit (Homo sapiens), P10721 [T670I]; test: Inhibition of human c-KIT ATP binding domain exon 14 T670I single mutant at 10 nM using poly (Glu,Tyr) 4:1 as substrate in presence of 33P-gamma-ATP by hotspot kinase assay relative to control
Mast/stem cell growth factor receptor Kit (Homo sapiens), P10721 [T670I], sequence (P10721 whole entry T670I, the tested form may be a part): as the sequence (P10721 whole entry D816V) above, with T670I, V816D counted along it

[16] = molecular target: T1, Mast/stem cell growth factor receptor Kit; test: as §1, with “of unactivated” for “of ATP-activated”, “after 120” for “after 30”
[17] = test system: Mast/stem cell growth factor receptor Kit (Homo sapiens), P10721 [D820E]; settings: at 100 nM
Mast/stem cell growth factor receptor Kit (Homo sapiens), P10721 [D820E], sequence (P10721 whole entry D820E): as the sequence (P10721 whole entry D816V) above, with V816D, D820E counted along it
Description: Inhibition of human c-KIT A loop exon 17 D820E single mutant at 100 nM using poly (Glu,Tyr) 4:1 as substrate in presence of 33P-gamma-ATP by hotspot kinase assay relative to control

GIST430 [18] = test: Antitumor activity against human GIST430 cells harboring c-KIT exon 11 primary in-frame V560-L576 deletion mutant and exon 13 heterozygous secondary missense V654A mutant xenografted in NOD-SCID mouse assessed as reduction in tumor size at 25, po administered for 2 weeks with 2 days rest after day 5 and measured thrice per week up to 14 days during compound dosing relative to control; format: functional; set-up: scale not given: the % may be the effect or the level left
[19] = test system: Mast/stem cell growth factor receptor Kit (Homo sapiens), P10721 [Y823D]; settings: at 100 nM
Mast/stem cell growth factor receptor Kit (Homo sapiens), P10721 [Y823D], sequence (P10721 whole entry Y823D): as the sequence (P10721 whole entry D816V) above, with V816D, Y823D counted along it
Description: Inhibition of human c-KIT A loop exon 17 Y823D single mutant at 100 nM using poly (Glu,Tyr) 4:1 as substrate in presence of 33P-gamma-ATP by hotspot kinase assay relative to control

GIST48 [20] = test: Antiproliferative activity against human GIST48 cells harboring c-KIT exon 11 homozygous primary missense V560D mutant and exon 17 heterozygous secondary D820A mutant assessed as reduction in cell viability by MTS assay; format: functional
[21] = test system: Mast/stem cell growth factor receptor Kit (Homo sapiens), P10721 [T670I]; test: Inhibition of human c-KIT ATP binding domain exon 14 T670I single mutant at 100 nM using poly (Glu,Tyr) 4:1 as substrate in presence of 33P-gamma-ATP by hotspot kinase assay relative to control
[22] = molecular target: Mast/stem cell growth factor receptor Kit (Homo sapiens, UniProt P10721, V560G); test: Inhibition of human c-KIT JM domain exon 11 V560G single mutant using poly (Glu,Tyr) 4:1 as substrate in presence of 33P-gamma-ATP by hotspot kinase assay
Mast/stem cell growth factor receptor Kit (Homo sapiens, UniProt P10721, V560G), sequence (P10721 26-976 V560G limits assumed): as the sequence (P10721 26-976 A829P limits assumed) above, with V535G, P804A counted along it

[23] = test system: Mast/stem cell growth factor receptor Kit (Homo sapiens), P10721 [K642E]; test: Inhibition of human c-KIT ATP binding domain exon 13 K642E single mutant at 10 nM using poly (Glu,Tyr) 4:1 as substrate in presence of 33P-gamma-ATP by hotspot kinase assay relative to control
Mast/stem cell growth factor receptor Kit (Homo sapiens), P10721 [K642E], sequence (P10721 whole entry K642E, the tested form may be a part): as the sequence (P10721 whole entry D816V) above, with K642E, V816D counted along it

[24] = test system: Mast/stem cell growth factor receptor Kit (Homo sapiens), P10721 [D816H]; settings: at 10 nM
Mast/stem cell growth factor receptor Kit (Homo sapiens), P10721 [D816H], sequence (P10721 whole entry D816H): as the sequence (P10721 whole entry D816V) above, with V816H counted along it
Description: Inhibition of human c-KIT A loop exon 17 D816H single mutant at 10 nM using poly (Glu,Tyr) 4:1 as substrate in presence of 33P-gamma-ATP by hotspot kinase assay relative to control

GIST48 [25] = test: Antiproliferative activity against human GIST48 cells harboring c-KIT exon 11 homozygous primary missense V560D mutant and exon 17 heterozygous secondary D820A mutant assessed as reduction in cell viability by methylene blue staining based assay; format: functional
[26] = test system: Mast/stem cell growth factor receptor Kit (Homo sapiens), P10721 [D820Y]; settings: at 10 nM
Mast/stem cell growth factor receptor Kit (Homo sapiens), P10721 [D820Y], sequence (P10721 whole entry D820Y): as the sequence (P10721 whole entry D816V) above, with V816D, D820Y counted along it
Description: Inhibition of human c-KIT A loop exon 17 D820Y single mutant at 10 nM using poly (Glu,Tyr) 4:1 as substrate in presence of 33P-gamma-ATP by hotspot kinase assay relative to control

inhibition [2]: 73%
GI50 (PC-3): > 20 µM
IC50 [3]: 0.89 nM
inhibition [4]: 22%
IC50 [5]: 82 nM
IC50 [6]: 0.12 nM
Cmax [7]: 562 ng/mL
IC50 [8]: 92 nM
inhibition [9]: 94%
inhibition [10]: Active
inhibition [12]: Active
inhibition [13]: Active
clearance [14]: 20.2 mL/min/kg
inhibition [15]: 55%
IC50 [16]: 69 nM
inhibition [17]: 100%
inhibition [19]: 100%
inhibition [21]: 83%
IC50 [22]: 0.98 nM
inhibition [23]: 82%
inhibition [24]: 73%
inhibition [26]: 99%
Compound: CCc1cc(NC(=O)Nc2ccc(-c3cnc(Nc4cc(N5CCN(CC)CC5)ncn4)s3)cc2)no1
GI50 (GIST430 [1]): 1 nM
inhibition in vivo at 80 mg/kg (Mus musculus): 95.9%
GI50 at 72 h [11]: > 10 µM
GI50 (GISTT1): 2.2 nM
Activity (GIST430 [18]): 59%
GI50 (GIST48 [20]): 2 nM
GI50 (GIST48 [25]): 2 nM
